Test: thermogravimetric analysis (TGA), thermal stability

stability at the processing temperature (180° C.): stable
temperature above which decomposition begins (non-isothermal mode): above 190 °C
SMILES: Clc1ccccc1C(c1ccccc1)(c1ccccc1)n1ccnc1 [Clotrimazole]
